Measurements from patent US10246419B2, “Liver X receptor (LXR) modulators” (Ralexar Therapeutics, Inc., priority 2013, dated 2019).

These molecules were tested against human LXRβ (AA 153-461) LBD (Homo sapiens (Human), UniProt P55055) (assay: Gal4 LXRβ cotransfection assay (LXRβ Gal fusion assay)). Conditions: HEK 293 cells transiently transfected, Gal4-responsive luciferase reporter, compounds 0.01-10 μM.
Type: cell-based
Experimental: For transient transfection of HEK 293 cells, 6×10^3 cells are plated into 96-well dishes. Each well is transfected with 25 ng 5×UAS-luciferase reporter (pG5luc) and 25 ng of pM human LXRβ (AA 153-461) LBD plasmid using Fugene 6 reagent (Roche; Indianapolis, Ind.). The chimeric protein is assessed for the ability to transactivate a Gal4-responsive luciferase reporter plasmid in a concentration-responsive manner to compounds (0.01-10 μM). Luciferase activity at each dose concentration is measured in triplicate using standard substrate reagents (BD Biosciences; San Diego, Calif.).

Sequence of human LXRβ (AA 153-461) LBD (P55055 153-460 limits assumed): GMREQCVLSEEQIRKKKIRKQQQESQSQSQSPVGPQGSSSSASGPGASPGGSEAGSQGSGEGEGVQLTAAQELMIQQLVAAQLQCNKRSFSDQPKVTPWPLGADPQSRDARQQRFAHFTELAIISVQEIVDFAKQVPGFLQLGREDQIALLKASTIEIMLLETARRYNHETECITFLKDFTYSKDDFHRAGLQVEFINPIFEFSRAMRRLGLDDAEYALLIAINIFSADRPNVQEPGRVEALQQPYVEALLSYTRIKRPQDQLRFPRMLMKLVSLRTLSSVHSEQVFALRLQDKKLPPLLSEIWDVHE

EC50 [nM]	Compound
< 1000	CC(C)Cn1nc(C(F)(F)F)cc1-c1ccc(-c2cccc(S(C)(=O)=O)c2)cc1 [Compound 4, 1-isobutyl-5-(3′-(methylsulfonyl)biphenyl-4-yl)-3-(trifluoromethyl)-1H-pyrazole]
< 1000	CC(C)Cn1nc(C(F)(F)F)cc1-c1ccc(-c2ccc(CO)c(S(C)(=O)=O)c2)cc1 [Compound 5, (4′-(1-isobutyl-3-(trifluoromethyl)-1H-pyrazol-5-yl)-3-(methylsulfonyl)biphenyl-4-yl)methanol]
< 1000	CC(C)Cn1nc(C(=O)NCC(F)(F)F)cc1-c1ccc(-c2ccc(CO)c(S(C)(=O)=O)c2)cc1 [Compound 7, 5-(4′-(Hydroxymethyl)-3′-(methylsulfonyl)-[1,1′-biphenyl]-4-yl)-1-isobutyl-N-(2,2,2-trifluoroethyl)-1H-pyrazole-3-carboxamide]
1000 to 10000	CC(C)Cc1nc(C(C)(C)O)cn1-c1ccc(-c2cccc(S(C)(=O)=O)c2)cc1 [Compound 8, 2-(2-isobutyl-1-(3′-(methylsulfonyl)-[1,1′-biphenyl]-4-yl)-1H-imidazol-4-yl)propan-2-ol]
< 1000	CS(=O)(=O)c1cccc(-c2ccc(-c3cc(C(F)(F)F)nn3CC3CCCCC3)cc2)c1 [Compound 21, 1-(cyclohexylmethyl)-5-(3′-(methylsulfonyl)-[1,1′-biphenyl]-4-yl)-3-(trifluoromethyl)-1H-pyrazole]

The remaining lines, values behind:

Compound	EC50 [nM]
CC(C)Cn1nc(C(=O)NCC(F)(F)F)cc1-c1ccc(-c2cccc(S(C)(=O)=O)c2)cc1 [Compound 6, 1-Isobutyl-5-(3′-(methylsulfonyl)-[1,1′-biphenyl]-4-yl)-N-(2,2,2-trifluoroethyl)-1H-pyrazole-3-carboxamide]	< 1000
C=C(C)c1cc(-c2ccc(-c3cccc(S(C)(=O)=O)c3)cc2)n(CC(C)C)n1 [Compound 9, 1-isobutyl-5-(3′-(methylsulfonyl)-[1,1′-biphenyl]-4-yl)-3-(prop-1-en-2-yl)-1H-pyrazole]	1000 to 10000
CC(C)Cn1nc(C(C)(C)O)cc1-c1ccc(-c2ccc(CO)c(S(C)(=O)=O)c2)cc1 [Compound 10, 2-(5-(4′-(Hydroxymethyl)-3′-(methylsulfonyl)-[1,1′-biphenyl]-4-yl)-1-isobutyl-1H-pyrazol-3-yl)propan-2-ol]	1000 to 10000
CC(C)Cn1nc(C(C)(C)O)cc1-c1ccc(-c2cccc(S(C)(=O)=O)c2)cc1 [Compound 11, 2-(1-isobutyl-5-(3′-(methylsulfonyl)-[1,1′-biphenyl]-4-yl)-1H-pyrazol-3-yl)propan-2-ol]	1000 to 10000
CC(C)Cn1nc(C(C)C)cc1-c1ccc(-c2cccc(S(C)(=O)=O)c2)cc1 [Compound 12, 1-isobutyl-3-isopropyl-5-(3′-(methylsulfonyl)-[1,1′-biphenyl]-4-yl)-1H-pyrazole]	1000 to 10000
CS(=O)(=O)c1cccc(-c2ccc(-c3cc(C(F)(F)F)nn3CC3CC3)cc2)c1 [Compound 18, 1-(cyclopropylmethyl)-5-(3′-(methylsulfonyl)-[1,1′-biphenyl]-4-yl)-3-(trifluoromethyl)-1H-pyrazole]	< 1000
CCC(C)n1nc(C(F)(F)F)cc1-c1ccc(-c2cccc(S(C)(=O)=O)c2)cc1 (stereo not shown) [Compound 19, 1-(sec-butyl)-5-(3′-(methylsulfonyl)-[1,1′-biphenyl]-4-yl)-3-(trifluoromethyl)-1H-pyrazole]	> 10000
CS(=O)(=O)c1cccc(-c2ccc(-c3cc(C(F)(F)F)nn3C3CCCCC3)cc2)c1 [Compound 20, 1-cyclohexyl-5-(3′-(methylsulfonyl)-[1,1′-biphenyl]-4-yl)-3-(trifluoromethyl)-1H-pyrazole]	> 10000
